Assay results from patent US20260008760A1, “DIPEPTIDYL PEPTIDASE 1 INHIBITORS AND USES THEREOF” (Insmed Incorporated, priority 2024, published 2026).

What was measured:
[1] = biological target: human DPP1 enzyme (Homo sapiens, UniProt P53634); assay: Human DPP1 Enzyme IC50 Assay; type: biochemical; parameters: was first proteolytically processed into its mature form using recombinant human cathepsin L; purchased R&D Systems; details: activated recombinant human DPP1, 400 μM H-Gly-Arg-AMC, 10 minutes pre-incubation at 37° C., pH 6.0; average of n runs; read-out: Avg. IC50 (Human DPP1 enzyme IC50 value ranges)
Chain of human DPP1 enzyme (P53634 25-134 limits assumed): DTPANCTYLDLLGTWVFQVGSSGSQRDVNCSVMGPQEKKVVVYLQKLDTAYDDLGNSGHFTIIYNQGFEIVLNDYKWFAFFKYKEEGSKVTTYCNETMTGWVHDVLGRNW
Chain of human DPP1 enzyme (P53634 231-394 limits assumed): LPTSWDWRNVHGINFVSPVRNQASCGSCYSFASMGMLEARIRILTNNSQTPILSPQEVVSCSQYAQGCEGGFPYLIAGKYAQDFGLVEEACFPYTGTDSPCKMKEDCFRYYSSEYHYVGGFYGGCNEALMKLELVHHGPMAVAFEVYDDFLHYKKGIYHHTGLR
Chain of human DPP1 enzyme (P53634 395-463 limits assumed): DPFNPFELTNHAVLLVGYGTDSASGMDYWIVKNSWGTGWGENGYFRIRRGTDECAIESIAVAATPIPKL
Protocol: Example 97. Human DPP1 Enzyme IC50 Assay
Recombinant human DPP1 enzyme (R&D Systems; Minneapolis, MN) was first proteolytically processed into its mature form using recombinant human cathepsin L (R&D Systems) in a buffer consisting of 20 mM citric acid pH 4.5, 150 mM NaCl, 1 mM EDTA and 10 mM DTT. Test articles were applied to activated human DPP1 enzyme in Assay Buffer (25 mM MES pH 6.0, 50 mM NaCl, 5 mM DTT) in a total reaction volume of 125 μL. 25 μL of compound in Assay Buffer plus 5% DMSO was first added to 50 μL of activated human DPP1 enzyme at a concentration of 1 ng/μL and allowed to pre-incubate for 10 minutes at 37° C. after which 50 μL of 1000 μM H-Gly-Arg-AMC substrate (Bachem; St. Torrance, CA) was added, giving final substrate concentration of 400 μM and a final DMSO concentration of 1%. Substrate cleavage was measured for 90 minutes at 37° C., with fluorescence at Excitation/Emission 350/450 nm measured every 5 minutes. DPP1 concentration was interpolated based on its activity relative to a standard curve of activated human recombinant DPP1 enzyme. IC50 values for each compound were calculated via the XLFit (IDBS Version 5.3.1.3) Add-On to Microsoft Excel using the four parameter fit equation y={A+[(B−A)]/[1+((C/x)^D)]}, which appears as equation number 205 (4 Parameter Logistic Model or Sigmoidal Dose-Response Model) in XLFit. Default constraints were used for each Parameter. IC50 was defined as the compound concentration at which 50% of enzyme activity was inhibited when compared to the no-compound control.

[2] = biological target: DPP1 in HL-60 cells (Homo sapiens, UniProt P53634); assay: DPP1 Cell IC50 assay; type: cell-based; parameters: host or cells: HL-60 cells; details: 60 min pre-incubation, H-Gly-Phe-AFC substrate, average of n runs, read-out: Avg. IC50 (DPP1 Cell IC50 value ranges)
Chain of DPP1 in HL-60 cells (P53634 25-463): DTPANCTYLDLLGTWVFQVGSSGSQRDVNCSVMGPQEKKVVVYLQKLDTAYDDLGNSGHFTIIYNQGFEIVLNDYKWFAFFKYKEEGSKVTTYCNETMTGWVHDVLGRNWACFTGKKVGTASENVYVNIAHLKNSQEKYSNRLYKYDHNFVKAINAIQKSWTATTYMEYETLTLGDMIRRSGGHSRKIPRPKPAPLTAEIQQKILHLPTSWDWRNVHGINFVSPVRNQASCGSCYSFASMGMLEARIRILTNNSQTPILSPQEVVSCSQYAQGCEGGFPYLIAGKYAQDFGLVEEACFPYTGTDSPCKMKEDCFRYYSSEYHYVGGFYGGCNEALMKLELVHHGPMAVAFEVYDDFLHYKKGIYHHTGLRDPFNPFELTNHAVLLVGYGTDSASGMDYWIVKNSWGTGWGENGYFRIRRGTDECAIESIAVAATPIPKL
Protocol: Example 99. DPP1 Cell IC50 assay
HL-60 cells (ATCC; Manassas, VA) were maintained in RPMI-1640 supplemented with 20% heat-inactivated FBS and 1× Antibiotic Antimycotic (Cytiva; Marlborough, MA). Media was changed every three to four days and cells were not allowed to exceed 1×10^6 cells per mL. Prior to assay, cells were collected by centrifugation at 500 rcf for 3 minutes, resuspended in PBS and counted. Cells were diluted in PBS to a concentration of 5×10^5 live cells per mL and transferred to black 96-well plates for assay, 60 μL per well. Test articles were diluted in PBS plus 0.5% DMSO, and 20 μL was added to each assay well. Compound was allowed to pre-incubate with cells with gentle shaking at 100 rpm for 60 minutes at 37° C. in a cell culture incubator maintained at 5% CO2, after which 20 μL of 500 μM H-Gly-Phe-AFC substrate (MP Biomedicals; Solon, OH) was added to each well. Plates were returned to the incubator with shaking at 100 rpm for 30 minutes, after which fluorescence was measured at Excitation/Emission 400/505 nm. % Inhibition was calculated from RFU values compared to control cell wells that received only PBS plus 0.5% DMSO. IC50 values for each compound were calculated via the XLFit (IDBS Version 5.3.1.3) Add-On to Microsoft Excel using the four parameter fit equation y=(A+((B−A)/(1+((C/x)^D)))), which appears as equation number 205 (4 Parameter Logistic Model or Sigmoidal Dose-Response Model) in XLFit. IC50 was defined as the compound concentration at which 50% of enzyme activity was inhibited when compared to the no-compound control.

| Structure (SMILES) | IC50 [1] | IC50 [2] |
| --- | --- | --- |
| CO[C@H]1CCO[C@H](C(=O)N[C@H](C#N)Cc2cnc(-c3ccc4c(F)nn(C)c4c3)s2)CNC1 [Compound A170] | 5 to 15 nM |  |
| Cn1c(=O)oc2cc3c(cc21)-c1cc(F)c(C[C@H](C#N)NC(=O)[C@@H]2CNCCCO2)cc1OC3 [Compound C1-A] | > 15 nM | > 2.5 nM |
| CO[C@@H]1CCNC[C@@H](C(=O)N[C@H](C#N)Cc2cc3c(cc2F)-c2cc(C4COC4)c(F)cc2CO3)OC1 [Compound B12, (2S,7R)—N-{1-cyano-2-[2,8-difluoro-9-(oxetan-3-yl)-6H-benzo[c]chromen-3-yl]ethyl}-7-methoxy-1,4-oxazocane-2-carboxamide] | < 5 nM | 1 to 2.5 nM |
| CO[C@@H]1CCNC[C@@H](C(=O)N[C@H](C#N)Cc2ccc(-c3cc4c(C)nc(C)cn4c3)s2)OC1 [Compound A34, (2S,7R)—N-[(1S)-1-cyano-2-(5-{1,3-dimethylpyrrolo[1,2-a]pyrazin-7-yl}thiophen-2-yl)ethyl]-7-methoxy-1,4-oxazocane-2-carboxamide] | > 15 nM | 1 to 2.5 nM |
| N#C[C@H](Cc1ccc(-c2cc3cnccn3c2)cc1)NC(=O)[C@@H]1CNCCCO1 [Compound A54] | > 15 nM | > 2.5 nM |
| N#C[C@H](Cc1ccc(C23CC(C#N)(C2)C3)cc1)NC(=O)[C@@H]1CNCCCO1 [Compound 3] | > 15 nM |  |
| Cc1cn2c3c(cc2c(C)n1)-c1cc(F)c(C[C@@H](C#N)NC(=O)[C@@H]2CNCCCO2)cc1OC3 [Compound C10] | > 15 nM | 1 to 2.5 nM |
| CO[C@H]1CCO[C@H](C(=O)N[C@H](C#N)Cc2ccc(-c3cc4c(C)nc(C)cn4c3)cc2)CNC1 [Compound A42, (2S,6S)—N-[(1S)-1-cyano-2-(4-{1,3-dimethylpyrrolo[1,2-a]pyrazin-7-yl}phenyl)ethyl]-6-methoxy-1,4-oxazocane-2-carboxamide] | > 15 nM | 1 to 2.5 nM |
| N#C[C@H](Cc1ccc(-c2cc3c(O)ccnn3c2)cc1)NC(=O)[C@@H]1CNCCCO1 [Compound A15, (S)—N—((S)-1-cyano-2-(4-(4-hydroxypyrrolo[1,2-b]pyridazin-6-yl)phenyl)ethyl)-1,4-oxazepane-2-carboxamide] | > 15 nM |  |
| COC1CNC[C@@H](C(=O)N[C@H](C#N)Cc2ccc(-c3ccc4nnn(C)c4c3)cc2)OC1 (single isomer, unassigned) [Compound H12-A] | > 15 nM | > 2.5 nM |
| C[C@@H]1NC[C@@H](C(=O)N[C@H](C#N)Cc2cnc(-c3ccc4c(F)nn(C)c4c3)s2)OC[C@@H]1O [Compound A171] | > 15 nM | > 2.5 nM |
| Cn1ncc2cc3c(cc21)-c1cc(F)c(C[C@@H](C#N)NC(=O)[C@@H]2CNCCCO2)cc1OC3 [Compound C33] | < 5 nM | 1 to 2.5 nM |
| N#C[C@@H](Cc1cc2c(cc1F)-c1cc(C3COC3)c(F)cc1CO2)NC(=O)[C@@H]1CNCCCCO1 [Compound B10-A] | > 15 nM | > 2.5 nM |
| CN1CCC2(CCc3ccc4c(c32)COc2cc(CC(C#N)NC(=O)[C@@H]3CNCCCO3)c(F)cc2-4)CC1 (stereo partly drawn) [Compound C4, (2S)—N-(1-cyano-2-{8-fluoro-1′-methyl-2,4-dihydro-1H-spiro[indeno[4,5-c]chromene-3,4′-piperidin]-7-yl}ethyl)-1,4-oxazepane-2-carboxamide] | > 15 nM |  |
| CO[C@@H]1CNC[C@@H](C(=O)N[C@H](C#N)Cc2ccc(-c3ccc4nnn(C)c4c3)cc2)OC1 [Compound H12-B] | < 5 nM | 1 to 2.5 nM |
| CO[C@@H]1CCNC[C@@H](C(=O)N[C@H](C#N)Cc2ccc(-c3ccc4c(n3)CCCN4)cc2)OC1 [Compound A33, (2S,7R)—N—((S)-1-cyano-2-(4-(5,6,7,8-tetrahydro-1,5-naphthyridin-2-yl)phenyl)ethyl)-7-methoxy-1,4-oxazocane-2-carboxamide] | < 5 nM | > 2.5 nM |

| Structure (SMILES) | IC50 [1] | IC50 [2] |
| --- | --- | --- |
| Cc1cc2cc(-c3ccc(C[C@@H](C#N)NC(=O)[C@@H]4CNCCCO4)cc3)cn2c(C)n1 [Compound A57] | > 15 nM | > 2.5 nM |
| N#C[C@H](Cc1ccc(C23CCC(C#N)(CC2)CC3)cc1)NC(=O)[C@@H]1CNCCCO1 [Compound 4] | > 15 nM | > 2.5 nM |
| CCCCOCCn1c(=O)oc2ccc(-c3ccc(C[C@@H](C#N)NC(=O)[C@@H]4CNC[C@@H](OC)CCO4)cc3)cc21 [Compound F2, (2S,6S)—N-[(1S)-2-{4-[3-(2-butoxyethyl)-2-oxo-1,3-benzoxazol-5-yl]phenyl}-1-cyanoethyl]-6-methoxy-1,4-oxazocane-2-carboxamide] | > 15 nM | > 2.5 nM |
| N#C[C@H](Cc1ccc(-c2ccc3c(c2)C2(CCNCC2)CC3=O)cc1)NC(=O)[C@@H]1CNCCCO1 [Compound 30, (2S)—N-[(1S)-1-cyano-2-(4-{3-oxo-2H-spiro[indene-1,4′-piperidin]-6-yl}phenyl)ethyl]-1,4-oxazepane-2-carboxamide] | 5 to 15 nM | > 2.5 nM |
| N#C[C@H](Cc1ccc(-c2nc3c(s2)CS(=O)(=O)CC3)cc1)NC(=O)[C@@H]1CNCCCO1 [Compound A6] | > 15 nM | > 2.5 nM |
| Cn1nc(F)c2ccc(-c3ncc(C[C@@H](C#N)NC(=O)[C@@H]4CNCC[C@@H](F)CO4)s3)cc21 [Compound A172] | > 15 nM |  |
| N#Cc1ccc2c(c1)COc1cc(C[C@@H](C#N)NC(=O)[C@@H]3CNCCCCO3)c(F)cc1-2 (single isomer, unassigned) [Compound B8] | > 15 nM |  |
| CO[C@H]1CCO[C@H](C(=O)N[C@H](C#N)Cc2ccc(-c3ccc4cnn(C5CCN(C6COC6)CC5)c4c3)cc2F)CNC1 [Compound H2] | 5 to 15 nM |  |
| N#C[C@H](Cc1ccc(-c2ccnc3nc(O)oc23)cc1)NC(=O)[C@@H]1CNCCCO1 [Compound A13, (2S)—N-[(1S)-1-cyano-2-(4-{2-hydroxy-[1,3]oxazolo[4,5-b]pyridin-7-yl}phenyl)ethyl]-1,4-oxazepane-2-carboxamide] | > 15 nM |  |
| N#C[C@H](Cc1ccc(-c2cnc3[nH]ccc3n2)cc1)NC(=O)[C@@H]1CNCCCO1 [Compound A16, (2S)—N-[(1S)-1-cyano-2-(4-{5H-pyrrolo[2,3-b]pyrazin-2-yl}phenyl)ethyl]-1,4-oxazepane-2-carboxamide] | > 15 nM |  |
| CO[C@H]1CCO[C@H](C(=O)N[C@H](C#N)Cc2ccc(-c3ccc4cnn(C5CCN(C)CC5)c4c3)cc2F)CNC1 [Compound H1] | < 5 nM |  |
| N#Cc1ccc(C23CCC(C[C@@H](C#N)NC(=O)[C@@H]4CNCCCO4)(CC2)CC3)cc1 [Compound 1] | > 15 nM |  |
| N#Cc1ccc(C23CC(C[C@@H](C#N)NC(=O)[C@@H]4CNCCCO4)(C2)C3)cc1 [Compound 2] | > 15 nM |  |
| CN1Cc2cc(F)ccc2-c2ccc(C[C@@H](C#N)NC(=O)[C@@H]3CNCCCO3)cc2C1=O [Compound B3, (2S)—N-[(1S)-1-cyano-2-{13-fluoro-9-methyl-8-oxo-9-azatricyclo[9.4.0.0^{2,7}1]pentadeca-1(11),2,4,6,12,14-hexaen-5-yl}ethyl]-1,4-oxazepane-2-carboxamide] | > 15 nM |  |
| Cn1c(=O)oc2ccc3c(c21)COc1cc(C[C@H](C#N)NC(=O)[C@@H]2CNCCCO2)c(F)cc1-3 [Compound C2-B] | > 15 nM |  |
| N#C[C@H](Cc1ccc(-c2cncc3[nH]c(=O)[nH]c23)cc1)NC(=O)[C@@H]1CNCCCO1 [Compound A17, (2S)—N-[(1S)-1-cyano-2-(4-{2-oxo-1H,3H-imidazo[4,5-c]pyridin-7-yl}phenyl)ethyl]-1,4-oxazepane-2-carboxamide] | > 15 nM |  |
